PubChem BioAssay (NCI)
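Dose response: 5 concentrations. Exposure: 48 h. Format: 96-well plates. Endpoint: linear interpolation; highest concentration if not reached. TGI is the concentration that stops growth completely.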

What was measured:
Experiment in all cases: NCI-60 cell line screen, 48 h
DMS 273 small cell lung = tested on: DMS 273 small cell lung
EKVX NSCLC = tested on: EKVX NSCLC
HCC-2998 colon = tested on: HCC-2998 colon
HCT-116 colon = tested on: HCT-116 colon
LXFL 529 NSCLC = tested on: LXFL 529 NSCLC
MALME-3M melanoma = tested on: MALME-3M melanoma
RPMI-8226 leukemia = tested on: RPMI-8226 leukemia
SK-MEL-28 melanoma = tested on: SK-MEL-28 melanoma
TK-10 renal = tested on: TK-10 renal
U251 CNS = tested on: U251 CNS
HOP-18 NSCLC = tested on: HOP-18 NSCLC
LOX IMVI melanoma = tested on: LOX IMVI melanoma
BT-549 breast = tested on: BT-549 breast
DU-145 prostate = tested on: DU-145 prostate
HS 578T breast = tested on: HS 578T breast
MCF7 breast = tested on: MCF7 breast
MDA-MB-231 breast = tested on: MDA-MB-231 breast
MDA-MB-435 = tested on: MDA-MB-435
MDA-N = tested on: MDA-N
NCI/ADR-RES ovarian = tested on: NCI/ADR-RES ovarian

| Structure (SMILES) | TGI (DMS 273 small cell lung) [µM] | TGI (EKVX NSCLC) [µM] | TGI (HCC-2998 colon) [µM] | TGI (HCT-116 colon) [µM] | TGI (LXFL 529 NSCLC) [µM] | TGI (MALME-3M melanoma) [µM] | TGI (RPMI-8226 leukemia) [µM] | TGI (SK-MEL-28 melanoma) [µM] | TGI (TK-10 renal) [µM] | TGI (U251 CNS) [µM] | TGI (HOP-18 NSCLC) [µM] | TGI (LOX IMVI melanoma) [µM] | TGI (BT-549 breast) [µM] | TGI (DU-145 prostate) [µM] | TGI (HS 578T breast) [µM] | TGI (MCF7 breast) [µM] | TGI (MDA-MB-231 breast) [µM] | TGI (MDA-MB-435) [µM] | TGI (MDA-N) [µM] | TGI (NCI/ADR-RES ovarian) [µM] |
| --- | --- | --- | --- | --- | --- | --- | --- | --- | --- | --- | --- | --- | --- | --- | --- | --- | --- | --- | --- | --- |
| CCC1NC(N=Nc2ccc([N+](=O)[O-])cc2)(P(=O)(OC(C)C)OC(C)C)OC1=O (stereo not given) | > 100 | > 100 | > 100 | > 100 | > 100 | > 100 | > 100 | > 100 | > 100 | > 100 |  |  |  |  |  |  |  |  |  |  |
| CCn1cnnc1-c1nsc2ccccc12 | > 100 | > 100 | > 100 | > 100 | > 100 |  | > 100 | > 100 | > 100 | > 100 | > 100 | > 100 |  |  |  |  |  |  |  |  |
| CN(Cc1cnc2c(N)nc(N)nc2n1)c1ccc(Cl)cc1 |  | > 100 |  |  |  | > 100 | > 100 |  | > 100 | > 100 |  |  | > 100 | > 100 | > 100 | > 100 | > 100 | > 100 | > 100 | > 100 |
| CC(C)NC(=O)OCc1c2c(n(C)c1COC(=O)NC(C)C)-c1ccccc1CC2 | 27.3 | 33.6 | 26.3 | 23.2 |  | 19.2 | 17.3 | 26.2 |  | 22.5 | 13.9 | 16.9 |  |  |  | 22.4 |  |  |  | 32.2 |
| Cc1ccc2c(=O)c3ccccc3sc2c1 | > 100 | > 100 | > 100 | > 100 | > 100 | > 100 | > 100 | > 100 | > 100 | > 100 | > 100 | > 100 |  |  |  |  |  |  |  |  |
| C[C@@H]1CC[C@@]2(OC1)O[C@H]1C[C@H]3[C@@H]4CC[C@H]5C[C@@H](OC6OC(CO)C(OC7OC(CO)C(O)C(OC8OCC(O)C(O)C8O)C7OC7OC(CO)C(O)C(O)C7O)C(O)C6O)[C@H](O)C[C@]5(C)[C@H]4CC[C@]3(C)[C@H]1[C@@H]2C (stereo not given in full) |  | 21 | 24.7 | 17.8 |  | 30.8 | 30.1 | 31 | > 100 | 12.4 |  | 7.89 | 7.47 | 13.9 | 15.9 | 1.68 | 6.71 | 31.8 | 28.3 | 12.6 |
| O=C(O)C1CCCCN1c1ccccc1[N+](=O)[O-] (stereo not given) | > 100 | > 100 | > 100 | > 100 | > 100 | > 100 | > 100 |  | > 100 | > 100 | > 100 | > 100 |  |  |  |  |  |  |  |  |
| O=C(N/N=C/c1cc(Br)cc(Br)c1[O-])c1ccccc1O.O=C(N/N=C/c1cc(Br)cc(Br)c1[O-])c1ccccc1O.[Co+2] |  | 11.3 | 10.5 | 17.7 |  | 18.5 |  | 14.5 | 14.1 | 9.38 |  | 12.9 |  |  |  |  |  |  |  |  |
| O=c1oc2cc(O)ccc2c(O)c1Cc1c(O)c2ccc(O)cc2oc1=O |  | > 100 | > 100 | > 100 |  | > 100 |  | > 100 | > 100 | > 100 |  | > 100 | > 100 | > 100 | > 100 | > 100 | > 100 | > 100 | > 100 | > 100 |
